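Values below derive from 48-hour exposures of cells grown in 96-well plates, with endpoints linearly interpolated between the two concentrations bracketing the appropriate inhibition level. Abbreviation: GI50, concentration required for 50% inhibition of growth.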 Active and inactive are the calls of the source. Cut-off read from the data, not from the text of the source: active = GI50 up to about 1.1 µM and inactive = higher.
Tests used:
Experiment in all cases: growth of human tumour cells (NCI), 48 h
[1] = test system: MDA-N
[2] = test system: OVCAR-8
[3] = test system: RPMI-8226
[4] = test system: IGROV-1
[5] = test system: MOLT-4
[6] = test system: SF-539
[7] = test system: HOP-92
[8] = test system: K562
[9] = test system: NCI-H522
[10] = test system: A498
[11] = test system: TK-10
[12] = test system: UACC-62
[13] = test system: SF-268
[14] = test system: MCF7
[15] = test system: SW-620
[16] = test system: LOX IMVI
[17] = test system: HCC 2998
[18] = test system: HCT-116
[19] = test system: U-251
[20] = test system: CAKI-1

Measured: GI50

CCN(CC)CCCNC(=O)c1cc(-c2nccn2C)nc2ccccc12
inactive: [1] > 100 µM | [2] > 100 µM | [3] > 100 µM | [4] > 100 µM | [5] > 100 µM | [6] > 100 µM | [7] > 100 µM | [8] > 100 µM | [9] > 100 µM | [10] > 100 µM | [11] > 100 µM | [12] > 100 µM | [13] > 100 µM | [14] > 100 µM | [15] > 100 µM | [16] > 100 µM | [17] > 100 µM | [18] > 100 µM | [19] > 100 µM | [20] > 100 µM

OC1(c2cccs2)c2cccc(Cl)c2C(O)(c2cccs2)c2c(Cl)cccc21 (stereo not given)
inactive: [1] > 100 µM | [2] 58.9 µM | [3] > 100 µM | [4] 88.5 µM | [5] > 100 µM | [6] 37 µM | [7] 93.1 µM | [8] > 100 µM | [9] 96.6 µM | [10] > 100 µM | [11] > 100 µM | [12] 34.3 µM | [13] 22.3 µM | [14] > 100 µM | [15] > 100 µM | [16] > 100 µM | [17] > 100 µM | [18] > 100 µM | [19] 26.6 µM | [20] > 100 µM

COC(=O)C1=C(C=O)C2C=CC1C2 (stereo not given)
inactive: [1] > 100 µM | [2] 55 µM | [3] 51.1 µM | [4] > 100 µM | [5] 35.6 µM | [6] > 100 µM | [7] > 100 µM | [8] 34.2 µM | [9] 44.5 µM | [10] > 100 µM | [11] 53.8 µM | [12] > 93.1 µM | [13] > 83.4 µM | [14] > 100 µM | [15] 43.6 µM | [16] > 60.5 µM | [17] > 89.1 µM | [18] 58.9 µM | [19] > 88.5 µM | [20] 44.2 µM

Cc1c(O)ccc2c(O)c(NC(=O)c3ccc4c(c3)CCC(C)(C)O4)c(=O)oc12 [CYCLONOVOBIOCIC ACID]
inactive: [1] > 100 µM | [2] > 100 µM | [3] > 100 µM | [4] > 100 µM | [5] > 100 µM | [6] > 100 µM | [7] > 100 µM | [8] > 100 µM | [9] > 100 µM | [10] 45.8 µM | [11] > 100 µM | [12] 90.6 µM | [13] > 100 µM | [14] > 100 µM | [15] > 100 µM | [16] > 100 µM | [17] > 100 µM | [18] > 100 µM | [19] > 100 µM | [20] > 100 µM

— ChEMBL document CHEMBL1201862, “PubChem BioAssay data set” (2004)
